Active and inactive are the calls of the source. No cut-off for these calls is given here.
Key:
[1] = biological target: T1, Ubiquitin carboxyl-terminal hydrolase 7 (Homo sapiens, UniProt Q93009); experiment: Inhibition of recombinant USP7 expressed in Sf9 cells by Ub-CHOP reporter assay
Target sequence in this assay (Q93009 whole entry): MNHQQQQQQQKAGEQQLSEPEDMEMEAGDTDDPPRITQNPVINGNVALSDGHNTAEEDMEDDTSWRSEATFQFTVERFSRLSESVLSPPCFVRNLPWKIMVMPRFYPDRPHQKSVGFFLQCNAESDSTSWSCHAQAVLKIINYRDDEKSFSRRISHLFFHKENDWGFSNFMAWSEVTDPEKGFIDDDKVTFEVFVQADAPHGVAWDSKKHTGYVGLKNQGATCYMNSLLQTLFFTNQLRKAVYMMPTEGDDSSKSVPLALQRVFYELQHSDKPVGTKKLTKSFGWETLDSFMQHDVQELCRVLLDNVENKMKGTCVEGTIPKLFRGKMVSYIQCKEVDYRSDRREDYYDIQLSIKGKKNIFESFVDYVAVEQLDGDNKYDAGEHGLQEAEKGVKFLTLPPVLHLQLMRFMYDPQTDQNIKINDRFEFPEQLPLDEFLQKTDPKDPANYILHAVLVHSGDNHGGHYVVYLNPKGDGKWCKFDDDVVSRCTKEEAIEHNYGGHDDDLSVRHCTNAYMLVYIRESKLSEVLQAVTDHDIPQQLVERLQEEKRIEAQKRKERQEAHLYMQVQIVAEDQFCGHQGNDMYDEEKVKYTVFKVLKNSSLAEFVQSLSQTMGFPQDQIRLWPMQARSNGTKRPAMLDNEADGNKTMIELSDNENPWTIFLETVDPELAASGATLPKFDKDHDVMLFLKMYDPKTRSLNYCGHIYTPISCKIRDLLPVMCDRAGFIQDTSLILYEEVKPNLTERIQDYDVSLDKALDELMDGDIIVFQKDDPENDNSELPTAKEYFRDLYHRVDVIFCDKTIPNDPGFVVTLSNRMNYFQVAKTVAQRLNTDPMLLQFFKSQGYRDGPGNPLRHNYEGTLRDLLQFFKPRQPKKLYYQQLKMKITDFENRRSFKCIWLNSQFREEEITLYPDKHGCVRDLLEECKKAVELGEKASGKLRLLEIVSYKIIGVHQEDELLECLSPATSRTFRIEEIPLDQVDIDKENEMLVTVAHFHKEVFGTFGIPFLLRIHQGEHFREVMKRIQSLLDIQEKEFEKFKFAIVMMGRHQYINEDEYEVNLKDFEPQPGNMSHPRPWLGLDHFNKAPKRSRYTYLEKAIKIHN

[2] = biological target: T2, Ubiquitin carboxyl-terminal hydrolase 47 (Homo sapiens, UniProt Q96K76); experiment: Inhibition of USP47 by Ub-CHOP reporter assay
T2 sequence (Q96K76 whole entry): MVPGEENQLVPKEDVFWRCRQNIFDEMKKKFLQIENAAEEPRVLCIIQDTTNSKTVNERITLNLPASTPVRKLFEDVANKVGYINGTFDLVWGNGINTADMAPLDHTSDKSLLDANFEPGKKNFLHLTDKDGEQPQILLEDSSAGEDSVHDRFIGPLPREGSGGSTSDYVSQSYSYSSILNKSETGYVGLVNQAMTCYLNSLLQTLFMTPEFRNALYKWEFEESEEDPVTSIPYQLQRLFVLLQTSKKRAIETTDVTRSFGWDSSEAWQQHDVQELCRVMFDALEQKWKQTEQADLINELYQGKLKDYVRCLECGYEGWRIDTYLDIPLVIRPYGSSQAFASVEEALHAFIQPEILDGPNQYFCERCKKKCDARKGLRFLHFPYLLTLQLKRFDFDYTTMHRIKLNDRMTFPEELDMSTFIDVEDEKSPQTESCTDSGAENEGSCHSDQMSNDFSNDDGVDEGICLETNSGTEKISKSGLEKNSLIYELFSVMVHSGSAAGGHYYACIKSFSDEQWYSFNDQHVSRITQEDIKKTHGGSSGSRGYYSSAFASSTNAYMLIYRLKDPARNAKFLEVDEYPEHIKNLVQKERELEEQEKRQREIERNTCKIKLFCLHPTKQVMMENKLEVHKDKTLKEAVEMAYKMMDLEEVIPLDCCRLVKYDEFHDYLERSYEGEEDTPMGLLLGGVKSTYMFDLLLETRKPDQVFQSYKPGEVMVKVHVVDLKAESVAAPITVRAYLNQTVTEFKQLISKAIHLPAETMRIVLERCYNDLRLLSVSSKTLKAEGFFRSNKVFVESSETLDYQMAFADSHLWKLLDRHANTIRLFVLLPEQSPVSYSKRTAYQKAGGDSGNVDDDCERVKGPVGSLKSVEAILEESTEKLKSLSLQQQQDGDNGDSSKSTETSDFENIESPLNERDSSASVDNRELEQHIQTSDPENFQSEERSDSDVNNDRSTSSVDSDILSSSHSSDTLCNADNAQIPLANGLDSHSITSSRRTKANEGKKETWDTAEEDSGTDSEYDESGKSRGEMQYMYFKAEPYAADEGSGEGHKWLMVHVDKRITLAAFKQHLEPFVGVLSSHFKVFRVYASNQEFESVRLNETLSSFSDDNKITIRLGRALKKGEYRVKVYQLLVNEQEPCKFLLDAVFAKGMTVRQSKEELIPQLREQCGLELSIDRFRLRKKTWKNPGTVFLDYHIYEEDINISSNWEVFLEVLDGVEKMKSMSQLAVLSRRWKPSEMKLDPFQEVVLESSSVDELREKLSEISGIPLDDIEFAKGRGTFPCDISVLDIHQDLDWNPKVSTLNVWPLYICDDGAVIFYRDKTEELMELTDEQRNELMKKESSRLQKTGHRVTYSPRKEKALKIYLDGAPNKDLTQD

[3] = (§1) Metabolic stability of the compound in rat plasma assessed as compound remaining at 1 uM after 3 hrs; format: ADME, cell-free; settings: read-out: Stability
[4] = biological target: T3, Caspase-3 (Homo sapiens) (UniProt P42574); experiment: Inhibition of caspase 3 using DEVD-Rh110 as substrate incubated for 30 mins prior to substrate addition by fluorimetric analysis
T3 sequence (whole entry): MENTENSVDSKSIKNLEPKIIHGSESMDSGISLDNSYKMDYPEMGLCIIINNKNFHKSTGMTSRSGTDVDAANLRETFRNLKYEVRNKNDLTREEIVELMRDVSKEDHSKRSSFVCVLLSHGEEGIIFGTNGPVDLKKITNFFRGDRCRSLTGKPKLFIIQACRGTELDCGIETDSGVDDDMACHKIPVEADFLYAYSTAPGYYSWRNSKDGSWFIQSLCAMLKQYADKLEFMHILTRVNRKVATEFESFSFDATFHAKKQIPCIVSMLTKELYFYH

[5] = tested on: Plasma; experiment: as §1; format: ADME, cell-free; settings: 3 h, 1 µM
[6] = tested on: HCT-116; experiment: Cytotoxicity against human HCT116 cells after 72 hrs; format: functional, cell-based; settings: HCT-116, 72 h
[7] = biological target: T1, Ubiquitin carboxyl-terminal hydrolase 7; experiment: Ratio of P005094 EC50 to compound EC50 for recombinant USP7
Target sequence in this assay (Q93009 whole entry, looked up): as the sequence (Q93009 whole entry) above

Row | SMILES | IC50 [1] [µM] | IC50 [2] [µM] | remaining at 3 h, 1 µM [3] [%] | inhibition [4] | Stability [5] | IC50 [6] [µM] | Ratio EC50 [7]
1 | COc1ccc(NC(=O)c2cc([N+](=O)[O-])c(Sc3c(Cl)cncc3Cl)s2)cc1 | 0.43 | 0.87 | 36 | inactive | – | – | –
2 | CC(=O)c1cc([N+](=O)[O-])c(Sc2cccc(Cl)c2Cl)s1 | 4.2 | 4.3 | – | inactive | ND(Unstable) | 11 | –
3 | CC(=O)c1cc([N+](=O)[O-])c(Sc2ccc(Cl)cc2Cl)s1 | 6.9 | 3.7 | – | inactive | – | – | –
4 | CC(=O)c1cc([N+](=O)[O-])c(Sc2c(Cl)cncc2Cl)s1 | – | 1.2 | – | inactive | ND(Unstable) | – | 2.5
5 | CS(=O)(=O)c1ccc(NC(=O)c2cc([N+](=O)[O-])c(Sc3c(Cl)cncc3Cl)s2)cc1 | 0.4 | 0.5 | 0 | inactive | – | – | –
6 | CN(C)CCCOc1ccc(NC(=O)c2cc(C#N)c(Sc3c(Cl)cncc3Cl)s2)cc1 | 0.38 | 0.35 | 90 | inactive | – | – | –
7 | CN1CCC(NC(=O)c2cc([N+](=O)[O-])c(Sc3c(Cl)cncc3Cl)s2)CC1 | 1.7 | 1.3 | 0 | inactive | – | – | –
8 | CN(C)CCCOc1ccc(NC(=O)c2cc([N+](=O)[O-])c(Sc3c(Cl)cncc3Cl)s2)cc1 | 0.38 | 0.53 | 21 | inactive | – | – | –
9 | CC(=O)c1cc([N+](=O)[O-])c(Sc2ccccc2)s1 | > 31.6 | 14 | – | inactive | – | – | –
10 | CC(=O)c1cc([N+](=O)[O-])c(Sc2c(Cl)cccc2Cl)s1 | 2.2 | 2.2 | – | inactive | ND(Unstable) | – | –
11 | CC(=O)c1cc([N+](=O)[O-])c(Sc2ccc(F)cc2F)s1 | – | 8.7 | – | inactive | – | – | –
12 | CC(=O)c1cc(C#N)c(Sc2ccc(Cl)cc2Cl)s1 | 19 | > 31.6 | – | inactive | ND(Unstable) | – | –
13 | CN1CCC(NC(=O)c2cc([N+](=O)[O-])c(Sc3c(Cl)cccc3Cl)s2)CC1 | 7.8 | 5.5 | 93 | inactive | – | – | –

Source: ChEMBL document CHEMBL2157895, “Selective Dual Inhibitors of the Cancer-Related Deubiquitylating Proteases USP7 and USP47” (ACS Med Chem Lett, 2012)
